Source: patent US10894817B2, “Fatty acid modified urocortin-2 analogs for the treatment of diabetes and chronic kidney disease” (priority 2016, dated 2021)
Read-outs that look alike come from different tables or passages of the source. Starred links: 1 amine or outer side, 2 acyl side, 3 side chain; linkers in the order of their positions; H or OH if unused. Non-standard residues stand in square brackets, D forms with d. Residues, ends and D or L forms follow the SMILES beside them. Groups on a side chain read outwards from the residue. *: point of attachment. C20 diacid = O=C(O)CCCCCCCCCCCCCCCCCCC(=O)*; γGlu = O=C(O)[C@H](CCC(=O)[*:2])N[*:1]; NMeI = CC[C@H](C)[C@H](NC)C(=O)O; AEEA = NCCOCCOCC(=O)O

Target: T1, human CRHR2b (Homo sapiens, UniProt Q13324)
T1 construct: expressed in transfected cells; host or cells: Chinese Hamster Ovary (CHO) cells, transient transfection
T1 sequence (Q13324 1-438 isoform Q13324-2): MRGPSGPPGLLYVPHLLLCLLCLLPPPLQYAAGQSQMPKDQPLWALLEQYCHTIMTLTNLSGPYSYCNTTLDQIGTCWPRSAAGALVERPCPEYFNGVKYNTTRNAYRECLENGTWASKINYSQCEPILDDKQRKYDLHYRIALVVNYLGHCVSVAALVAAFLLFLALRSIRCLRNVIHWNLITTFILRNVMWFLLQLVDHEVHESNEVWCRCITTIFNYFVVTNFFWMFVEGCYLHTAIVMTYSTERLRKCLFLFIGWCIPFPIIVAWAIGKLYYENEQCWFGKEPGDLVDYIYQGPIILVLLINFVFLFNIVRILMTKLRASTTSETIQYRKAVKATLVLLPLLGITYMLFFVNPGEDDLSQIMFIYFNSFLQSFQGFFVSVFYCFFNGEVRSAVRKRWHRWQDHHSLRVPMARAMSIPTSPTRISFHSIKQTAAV
Assay: human CRHR2b cell-based cAMP assay
Conditions: cAMP assay, read-out: hCRHR2b Average EC50
Summary of the method: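 ED50 values are means ± SEM over several runs, curve-fitted from cAMP in pmol, calibrated against unlabeled-cAMP standards. Detection was HTRF competition, ratio 665/620 nm, after 30 min agonist exposure at 37 °C.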

[1] = Table 26, compounds of Example 9

SMILES	EC50 [1]	EC50 (CHO cells transfected with human CRHR2b, mean ± SEM of runs)
CC[C@H](C)[C@H](NC)C(=O)N[C@H](C(=O)N[C@@H](CC(C)C)C(=O)N[C@@H](CO)C(=O)N[C@@H](CC(C)C)C(=O)N[C@@H](CC(=O)O)C(=O)N[C@H](C(=O)N1CCC[C@H]1C(=O)N[C@H](C(=O)NCC(=O)N[C@@H](CC(C)C)C(=O)N[C@@H](CC(C)C)C(=O)N[C@@H](CCC(N)=O)C(=O)N[C@H](C(=O)N[C@@H](CC(C)C)C(=O)N[C@@H](CC(C)C)C(=O)N[C@@H](CCC(=O)O)C(=O)N[C@@H](CCC(N)=O)C(=O)N[C@@H](CCC(=O)O)C(=O)N[C@@H](CCCCN)C(=O)N[C@@H](CCC(N)=O)C(=O)N[C@@H](CCC(=O)O)C(=O)N[C@@H](CCCCN)C(=O)N[C@@H](CCC(=O)O)C(=O)N[C@@H](CCCCN)C(=O)N[C@@H](CCC(N)=O)C(=O)N[C@@H](CCC(N)=O)C(=O)N[C@@H](C)C(=O)N[C@@H](CCCCNC(=O)CC[C@H](NC(=O)COCCOCCNC(=O)CC[C@H](NC(=O)CC[C@H](NC(=O)CCCCCCCCCCCCCCCCCCC(=O)O)C(=O)O)C(=O)O)C(=O)O)C(=O)N[C@H](C(=O)N[C@@H](CC(N)=O)C(=O)N[C@@H](C)C(=O)N[C@@H](CCC(N)=O)C(=O)N[C@H](C(=O)N[C@@H](CC(C)C)C(=O)N[C@@H](C)C(=O)N[C@@H](CCC(N)=O)C(=O)N[C@H](C(N)=O)C(C)C)[C@@H](C)CC)[C@@H](C)O)[C@@H](C)CC)[C@@H](C)CC)C(C)C)C(C)C [Compound 61] (H-[NMeI]VLSLDVPIGLLQILLEQEKQEKEKQQAK([γGlu-AEEA-γGlu-γGlu-C20 diacid])TNAQILAQV-NH2)	2.5 nM	–
CC[C@H](C)[C@H](NC)C(=O)N[C@H](C(=O)N[C@@H](CC(C)C)C(=O)N[C@@H](CO)C(=O)N[C@@H](CC(C)C)C(=O)N[C@@H](CC(=O)O)C(=O)N[C@H](C(=O)N1CCC[C@H]1C(=O)N[C@H](C(=O)NCC(=O)N[C@@H](CC(C)C)C(=O)N[C@@H](CC(C)C)C(=O)N[C@@H](CCC(N)=O)C(=O)N[C@H](C(=O)N[C@@H](CC(C)C)C(=O)N[C@@H](CC(C)C)C(=O)N[C@@H](CCC(=O)O)C(=O)N[C@@H](CCC(N)=O)C(=O)N[C@@H](CCC(=O)O)C(=O)N[C@@H](CCCCN)C(=O)N[C@@H](CCC(N)=O)C(=O)N[C@@H](CCC(=O)O)C(=O)N[C@@H](CCCCN)C(=O)N[C@@H](CCC(=O)O)C(=O)N[C@@H](CCCCN)C(=O)N[C@@H](CCC(N)=O)C(=O)N[C@@H](CCC(N)=O)C(=O)N[C@@H](C)C(=O)N[C@@H](CCCCNC(=O)CC[C@H](NC(=O)CC[C@H](NC(=O)COCCOCCNC(=O)COCCOCCNC(=O)CC[C@H](NC(=O)CC[C@H](NC(=O)CCCCCCCCCCCCCCCCCCC(=O)O)C(=O)O)C(=O)O)C(=O)O)C(=O)O)C(=O)N[C@H](C(=O)N[C@@H](CC(N)=O)C(=O)N[C@@H](C)C(=O)N[C@@H](CCC(N)=O)C(=O)N[C@H](C(=O)N[C@@H](CC(C)C)C(=O)N[C@@H](C)C(=O)N[C@@H](CCC(N)=O)C(=O)N[C@H](C(N)=O)C(C)C)[C@@H](C)CC)[C@@H](C)O)[C@@H](C)CC)[C@@H](C)CC)C(C)C)C(C)C [Compound 62] (H-[NMeI]VLSLDVPIGLLQILLEQEKQEKEKQQAK([γGlu-γGlu-AEEA-AEEA-γGlu-γGlu-C20 diacid])TNAQILAQV-NH2)	4.5 nM	–
CC[C@H](C)[C@H](NC)C(=O)N[C@H](C(=O)N[C@@H](CC(C)C)C(=O)N[C@@H](CO)C(=O)N[C@@H](CC(C)C)C(=O)N[C@@H](CC(=O)O)C(=O)N[C@H](C(=O)N1CCC[C@H]1C(=O)N[C@H](C(=O)NCC(=O)N[C@@H](CC(C)C)C(=O)N[C@@H](CC(C)C)C(=O)N[C@@H](CCC(N)=O)C(=O)N[C@H](C(=O)N[C@@H](CC(C)C)C(=O)N[C@@H](CC(C)C)C(=O)N[C@@H](CCC(=O)O)C(=O)N[C@@H](CCC(N)=O)C(=O)N[C@@H](CCC(=O)O)C(=O)N[C@@H](CCCCN)C(=O)N[C@@H](CCC(N)=O)C(=O)N[C@@H](CCC(=O)O)C(=O)N[C@@H](CCCCN)C(=O)N[C@@H](CCC(=O)O)C(=O)N[C@@H](CCCCN)C(=O)N[C@@H](CCC(N)=O)C(=O)N[C@@H](CCC(N)=O)C(=O)N[C@@H](C)C(=O)N[C@@H](CCCCNC(=O)CC[C@H](NC(=O)CC[C@H](NC(=O)COCCOCCNC(=O)CC[C@H](NC(=O)CC[C@H](NC(=O)CCCCCCCCCCCCCCCCCCC(=O)O)C(=O)O)C(=O)O)C(=O)O)C(=O)O)C(=O)N[C@H](C(=O)N[C@@H](CC(N)=O)C(=O)N[C@@H](C)C(=O)N[C@@H](CCC(N)=O)C(=O)N[C@H](C(=O)N[C@@H](CC(C)C)C(=O)N[C@@H](C)C(=O)N[C@@H](CCC(N)=O)C(=O)N[C@H](C(N)=O)C(C)C)[C@@H](C)CC)[C@@H](C)O)[C@@H](C)CC)[C@@H](C)CC)C(C)C)C(C)C [Compound 63] (H-[NMeI]VLSLDVPIGLLQILLEQEKQEKEKQQAK([γGlu-γGlu-AEEA-γGlu-γGlu-C20 diacid])TNAQILAQV-NH2)	1.3 nM	–

Second part, the molecule after the results:

EC50 [1]	EC50 (CHO cells transfected with human CRHR2b, mean ± SEM of runs)	SMILES
1.63 nM	–	CC[C@H](C)[C@H](NC)C(=O)N[C@H](C(=O)N[C@@H](CC(C)C)C(=O)N[C@@H](CO)C(=O)N[C@@H](CC(C)C)C(=O)N[C@@H](CC(=O)O)C(=O)N[C@H](C(=O)N1CCC[C@H]1C(=O)N[C@H](C(=O)NCC(=O)N[C@@H](CC(C)C)C(=O)N[C@@H](CC(C)C)C(=O)N[C@@H](CCC(N)=O)C(=O)N[C@H](C(=O)N[C@@H](CC(C)C)C(=O)N[C@@H](CC(C)C)C(=O)N[C@@H](CCC(=O)O)C(=O)N[C@@H](CCC(N)=O)C(=O)N[C@@H](CCC(=O)O)C(=O)N[C@@H](CCCCN)C(=O)N[C@@H](CCC(N)=O)C(=O)N[C@@H](CCC(=O)O)C(=O)N[C@@H](CCCCN)C(=O)N[C@@H](CCC(=O)O)C(=O)N[C@@H](CCCCN)C(=O)N[C@@H](CCC(N)=O)C(=O)N[C@@H](CCC(N)=O)C(=O)N[C@@H](C)C(=O)N[C@@H](CCCCNC(=O)CC[C@H](NC(=O)CC[C@H](NC(=O)CC[C@H](NC(=O)CC[C@H](NC(=O)CCCCCCCCCCCCCCCCCCC(=O)O)C(=O)O)C(=O)O)C(=O)O)C(=O)O)C(=O)N[C@H](C(=O)N[C@@H](CC(N)=O)C(=O)N[C@@H](C)C(=O)N[C@@H](CCC(N)=O)C(=O)N[C@H](C(=O)N[C@@H](CC(C)C)C(=O)N[C@@H](C)C(=O)N[C@@H](CCC(N)=O)C(=O)N[C@H](C(N)=O)C(C)C)[C@@H](C)CC)[C@@H](C)O)[C@@H](C)CC)[C@@H](C)CC)C(C)C)C(C)C [Compound 64] (H-[NMeI]VLSLDVPIGLLQILLEQEKQEKEKQQAK([γGlu-γGlu-γGlu-γGlu-C20 diacid])TNAQILAQV-NH2)
1.45 nM	–	CC[C@H](C)[C@H](NC)C(=O)N[C@H](C(=O)N[C@H](C(=O)N[C@@H](CO)C(=O)N[C@@H](CC(C)C)C(=O)N[C@@H](CC(=O)O)C(=O)N[C@H](C(=O)N1CCC[C@H]1C(=O)N[C@H](C(=O)NCC(=O)N[C@@H](CC(C)C)C(=O)N[C@@H](CC(C)C)C(=O)N[C@@H](CCC(N)=O)C(=O)N[C@H](C(=O)N[C@@H](CC(C)C)C(=O)N[C@@H](CC(C)C)C(=O)N[C@@H](CCC(=O)O)C(=O)N[C@@H](CCC(N)=O)C(=O)N[C@@H](CCC(=O)O)C(=O)N[C@@H](CCCCN)C(=O)N[C@@H](CCC(N)=O)C(=O)N[C@@H](CCC(=O)O)C(=O)N[C@@H](CCCCN)C(=O)N[C@@H](CCC(=O)O)C(=O)N[C@@H](CCCCN)C(=O)N[C@@H](CCC(N)=O)C(=O)N[C@@H](CCC(N)=O)C(=O)N[C@@H](C)C(=O)N[C@@H](CCCCNC(=O)CC[C@H](NC(=O)COCCOCCNC(=O)COCCOCCNC(=O)CC[C@H](NC(=O)CC[C@H](NC(=O)CCCCCCCCCCCCCCCCCCC(=O)O)C(=O)O)C(=O)O)C(=O)O)C(=O)N[C@H](C(=O)N[C@@H](CC(N)=O)C(=O)N[C@@H](C)C(=O)N[C@@H](CCC(=O)O)C(=O)N[C@H](C(=O)N[C@@H](CC(C)C)C(=O)N[C@@H](C)C(=O)N[C@@H](CCC(N)=O)C(=O)N[C@H](C(N)=O)C(C)C)[C@@H](C)CC)[C@@H](C)O)[C@@H](C)CC)[C@@H](C)CC)C(C)C)[C@@H](C)O)C(C)C [Compound 66] (H-[NMeI]VTSLDVPIGLLQILLEQEKQEKEKQQAK([γGlu-AEEA-AEEA-γGlu-γGlu-C20 diacid])TNAEILAQV-NH2)
–	1.01 ± 0.23 nM	CC[C@H](C)[C@H](NC)C(=O)N[C@H](C(=O)N[C@H](C(=O)N[C@@H](CO)C(=O)N[C@@H](CC(C)C)C(=O)N[C@@H](CC(=O)O)C(=O)N[C@H](C(=O)N1CCC[C@H]1C(=O)N[C@H](C(=O)NCC(=O)N[C@@H](CC(C)C)C(=O)N[C@@H](CC(C)C)C(=O)N[C@@H](CCC(N)=O)C(=O)N[C@H](C(=O)N[C@@H](CC(C)C)C(=O)N[C@@H](CC(C)C)C(=O)N[C@@H](CCC(=O)O)C(=O)N[C@@H](CCC(N)=O)C(=O)N[C@@H](CCC(=O)O)C(=O)N[C@@H](CCCCN)C(=O)N[C@@H](CCC(N)=O)C(=O)N[C@@H](CCC(=O)O)C(=O)N[C@@H](CCCCN)C(=O)N[C@@H](CCC(=O)O)C(=O)N[C@@H](CCCCN)C(=O)N[C@@H](CCC(N)=O)C(=O)N[C@@H](CCC(N)=O)C(=O)N[C@@H](C)C(=O)N[C@@H](CCCCNC(=O)COCCOCCNC(=O)COCCOCCNC(=O)CC[C@H](NC(=O)CC[C@H](NC(=O)CCCCCCCCCCCCCCCCCCC(=O)O)C(=O)O)C(=O)O)C(=O)N[C@H](C(=O)N[C@@H](CC(N)=O)C(=O)N[C@@H](C)C(=O)N[C@@H](CCC(=O)O)C(=O)N[C@H](C(=O)N[C@@H](CC(C)C)C(=O)N[C@@H](C)C(=O)N[C@@H](CCC(N)=O)C(=O)N[C@H](C(N)=O)C(C)C)[C@@H](C)CC)[C@@H](C)O)[C@@H](C)CC)[C@@H](C)CC)C(C)C)[C@@H](C)O)C(C)C [Example 5] (H-[NMeI]VTSLDVPIGLLQILLEQEKQEKEKQQAK([AEEA-AEEA-γGlu-γGlu-C20 diacid])TNAEILAQV-NH2)
